Experiment [1] has as its system Ustilaginoidea virens. Briefly: In vitro activity of pydiflumetofen and other active ingredients against rice false smut, mycelial growth method (Example 2). Type of experiment: cell-based. The following applies: for EC50: mycelial growth, same protocol as Example 1. The method, then: (§1) Ustilaginoidea virens, the pathogens that cause rice false smut, were isolated from infected rice tissues and stored at 4° C. Pathogen was applied to the PSA plate and incubated at 28° C. for 7 days. Mycelial plugs at the edge of the colony were prepared by hole puncher with a diameter of 5 mm. Pydiflumetofen was dissolved into dimethyl sulfoxide (DMSO) to get 4×10^4 μg/mL for stock solution. Mixing PSA culture medium with stock solution of pydiflumetofen to get different series of concentration: 0, 0.0005, 0.0010, 0.0025, 0.0040, 0.0055, and 0.007 μg/mL. Using the mycelial growth method, the mycelial plugs were shifted to the center of PSA medium plates containing different pydiflumetofen concentrations. […] EC50 values were determined by the fitted regression line of the log-transformed percentage inhibition plotted against the log-transformed fungicide concentration.
Using the same protocol as for Example 1 (above), the activity of pydiflumetofen against rice false smut was compared to that of other fungicidal active ingredients.
EC50 values were determined by the fitted regression line of the log-transformed percentage inhibition plotted against the log-transformed fungicide concentration. The lower the EC50 value, the higher the activity.

Experiment [2] deals with rice false smut. Kind of experiment: Field trial, efficacy against rice false smut at 38 days after application (Example 3). In kind it is in vivo, Ustilaginoidea virens. The following applies: 60-75 gai/ha. From the text: (§2) • Application Method: Foliar Spray • Water Volume: 450 L/ha • Number of Applications: 1 • Application Timing: BBCH 45-47
A scale/index of 0 to 9 was used to define the level of disease severity, wherein 0 represents a healthy plant and 9 represents high levels/severe symptoms of disease. Each plant was graded on this 0 to 9 scale and the Disease Index calculated using the following formula:
Disease Index (DI)=[sum(class frequency×scpre of rating class)]/[(total number of plants)×(maximal disease index)]×100.

Experiment [3] relates to rice false smut. Briefly: Field trial, efficacy against rice false smut at 77 days after application (Example 4). In kind it is in vivo, Ustilaginoidea virens. The settings on record: 75 gai/ha.
From the text: as §2

The subject of experiment [4] is Ustilaginoidea virens. Kind of experiment: In vitro activity against rice false smut by mycelial growth method (Example 1). Type of experiment: cell-based. The following applies: for Average mycelium growth diameter: untreated 35.63; for Mycelium diameter, Average: average of 8, untreated 40.63; for Mycelium diameter: individual replicates 1-8. The procedure:
Example 1-In Vitro Activity of Pydiflumetofen Against Rice False Smut (Caused by Ustilaginoidea Virens) by Mycelial Growth Method
as §1
As stated above, EC50 values were determined by the fitted regression line of the log-transformed percentage inhibition plotted against the log-transformed fungicide concentration. The lower the EC50 value, the higher the activity.

Where [5] appears, read: Ustilaginoidea virens, read-out: EC50.

Converted amounts (≈) assume the structure as drawn. “And” between values parts separate entries of the source, which are not always exact repeats. Equal entries are not always repeated.

Epoxiconazole came in with an EC50 in the experiment with Ustilaginoidea virens [1] of 0.0086 ppm.
`CC1(C)CCC(Cc2ccc(Cl)cc2)C1(O)Cn1cncn1` (stereo not drawn) [Metconazole]: in the experiment on Ustilaginoidea virens [1] (setting [5]), the EC50 is 0.041 µg/mL (≈ 0.128 µM).
The same measure, in the same setting: the same measure for `CCCC1COC(Cn2cncn2)(c2ccc(Cl)cc2Cl)O1` (stereo not drawn) [Propiconazole]: 0.0205 µg/mL (≈ 0.0599 µM).
For the molecule `CON(C(=O)c1cn(C)nc1C(F)F)C(C)Cc1c(Cl)cc(Cl)cc1Cl` (stereo not drawn) [Pydiflumetofen, 3-(difluoromethyl)-N-methoxy-1-methyl-N-[1-methyl-2-(2,4,6-trichloro-phenyl)ethyl]-1H-pyrazole-4-carboxamide], the “control against rice false smut in the field (in words)” value in the experiment on rice false smut [2] and with rice false smut [3] was “good control” in each case. Moreover, the EC50 was 0.0045 µg/mL (≈ 0.0105 µM) in the experiment on Ustilaginoidea virens [1] (setting [5]) and 0.0037 µg/mL (≈ 0.00867 µM) with Ustilaginoidea virens [4] (Ustilaginoidea virens, 336 h, mycelial growth, PSA, 28° C., 14 days). For the same molecule, the “activity against Ustilaginoidea virens (in words)” value in the experiment on Ustilaginoidea virens [1] (compared to fungicides commonly used to treat rice false smut) and with Ustilaginoidea virens [4] (mycelial growth) was “very high activity” each time. The “Average mycelium growth diameter” value came out at 33.13 mm with Ustilaginoidea virens [4] (0.0005 μg/mL, 28° C., 14 days); 28.63 mm in the experiment with Ustilaginoidea virens [4] (0.0010 μg/mL, 28° C., 14 days); 20.75 mm with Ustilaginoidea virens [4] (0.0025 μg/mL, 28° C., 14 days); 19.50 mm in the experiment with Ustilaginoidea virens [4] (0.0040 μg/mL, 28° C., 14 days); 17.75 mm with Ustilaginoidea virens [4] (0.0055 μg/mL, 28° C., 14 days); 7.75 mm with Ustilaginoidea virens [4] (0.0070 μg/mL, 28° C., 14 days). For the same molecule, the “Mycelium diameter, Average” value was determined as 38.13 mm in the experiment on Ustilaginoidea virens [4] (0.0005 μg/mL, 28° C., 14 days); 33.63 mm with Ustilaginoidea virens [4] (0.0010 μg/mL, 28° C., 14 days); 25.75 mm in the experiment with Ustilaginoidea virens [4] (0.0025 μg/mL, 28° C., 14 days); 24.50 mm in the experiment on Ustilaginoidea virens [4] (0.0040 μg/mL, 28° C., 14 days); 22.75 mm in the experiment with Ustilaginoidea virens [4] (0.0055 μg/mL, 28° C., 14 days); 12.75 mm in the experiment on Ustilaginoidea virens [4] (0.0070 μg/mL, 28° C., 14 days). In addition, the Mycelium diameter is 37 mm and 38 mm (5×) and 39 mm (2×) in the experiment on Ustilaginoidea virens [4] (0.0005 μg/mL, 28° C., 14 days); 32 mm (2×) and 34 mm (2×) and 33 mm (2×) and 35 mm and 36 mm in the experiment with Ustilaginoidea virens [4] (0.0010 μg/mL, 28° C., 14 days); 25 mm (4×) and 26 mm (3×) and 28 mm in the experiment with Ustilaginoidea virens [4] (0.0025 μg/mL, 28° C., 14 days); 24 mm (4×) and 25 mm (4×) in the experiment on Ustilaginoidea virens [4] (0.0040 μg/mL, 28° C., 14 days); 22 mm (3×) and 23 mm (4×) and 24 mm in the experiment with Ustilaginoidea virens [4] (0.0055 μg/mL, 28° C., 14 days); 13 mm (6×) and 12 mm (2×) in the experiment with Ustilaginoidea virens [4] (0.0070 μg/mL, 28° C., 14 days). In the experiment with Ustilaginoidea virens [4] (Ustilaginoidea virens, 336 h, 0.0005 μg/mL, 28° C., 14 days), this molecule yielded an inhibition at 0.0005 µg/mL of 7.02%. The same molecule gave an inhibition at 0.001 µg/mL with Ustilaginoidea virens [4] (Ustilaginoidea virens, 336 h, 0.0010 μg/mL, 28° C., 14 days) of 19.6%. In the experiment on Ustilaginoidea virens [4] (Ustilaginoidea virens, 336 h, 0.0025 μg/mL, 28° C., 14 days), this molecule displayed an inhibition at 0.0025 µg/mL of 41.8%. In addition, in the experiment on Ustilaginoidea virens [4] (Ustilaginoidea virens, 336 h, 0.0040 μg/mL, 28° C., 14 days), at 0.004 µg/mL the inhibition was 45.3%. Also, in the experiment with Ustilaginoidea virens [4] (Ustilaginoidea virens, 336 h, 0.0055 μg/mL, 28° C., 14 days), testing at 0.0055 µg/mL gave an inhibition of 50.2%. This molecule also yielded an inhibition at 0.007 µg/mL in the experiment with Ustilaginoidea virens [4] (Ustilaginoidea virens, 336 h, 0.0070 μg/mL, 28° C., 14 days) of 78.2%.
For `CC(C)(C)C(O)(CCc1ccc(Cl)cc1)Cn1cncn1` (stereo not drawn) [Tebuconazole], in the experiment on Ustilaginoidea virens [1] (setting [5]), the EC50 stood at 0.0761 µg/mL (≈ 0.247 µM).
In the case of `CC(C1CC1)C(O)(Cn1cncn1)c1ccc(Cl)cc1` (stereo not drawn) [Cyproconazole], the EC50 in the experiment on Ustilaginoidea virens [1] (setting [5]) came to 0.0387 µg/mL (≈ 0.133 µM).
For the molecule `OC(Cc1ccccc1Cl)(Cn1nc[nH]c1=S)C1(Cl)CC1` (stereo not drawn) [Prothioconazole], the EC50 with Ustilaginoidea virens [1] (setting [5]) was found to be 3.11 µg/mL (≈ 9.03 µM).
